Data on one compound can be found in patent publication US7323436B2, “Adduct having an acidic solution of sparingly-soluble group IIA complexes” (priority 1999, dated 2008).

SMILES strings stand for the structures.

This data set in a line: Contact with human skin and nose. The data set is classed as in vivo. Conditions: pH of less than 0.5. From the text:
As discussed above, AGIIS has relatively less dehydrating properties (such as charring sucrose) as compared to the saturated solution of CaSO4 in the same concentration of H2SO4. […] AGIIS is non-volatile at room temperature.

Regarding `O=S(=O)(O)O` [sulfuric acid], the “irritation of a hand put into the solution” value was “an irritation would occur within a relatively short span of time”.
